Target: Stromelysin-1 (Homo sapiens, UniProt P08254)
Assay: Inhibition of matrix metalloprotease-3

Sequence of Stromelysin-1 (P08254 whole entry): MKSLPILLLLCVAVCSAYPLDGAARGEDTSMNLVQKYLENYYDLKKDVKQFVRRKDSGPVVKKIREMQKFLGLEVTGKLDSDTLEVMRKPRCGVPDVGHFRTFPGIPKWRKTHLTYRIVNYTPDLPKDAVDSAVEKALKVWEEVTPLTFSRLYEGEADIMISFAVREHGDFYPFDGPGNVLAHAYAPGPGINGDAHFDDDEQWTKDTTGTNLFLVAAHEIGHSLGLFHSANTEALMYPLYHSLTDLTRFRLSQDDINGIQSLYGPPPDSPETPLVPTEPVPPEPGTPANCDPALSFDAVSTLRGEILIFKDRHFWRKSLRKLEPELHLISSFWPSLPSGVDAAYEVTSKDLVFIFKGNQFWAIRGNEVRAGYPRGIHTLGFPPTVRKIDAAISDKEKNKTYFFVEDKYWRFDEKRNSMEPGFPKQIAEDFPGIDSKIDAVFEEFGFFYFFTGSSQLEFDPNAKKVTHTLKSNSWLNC

| Compound | IC50 |
| --- | --- |
| CCCCCCC(N[C@@H](CCc1ccccc1)C(=O)N[C@@H](CCCN=C(N)N)C(=O)N[C@@H](Cc1cc2ccccc2[nH]1)C(=O)OC)C(=O)O (stereo not given in full) | 900 nM |
| CCCCCCC(N[C@@H](CCc1ccccc1)C(=O)N[C@@H](CCCN=C(N)N)C(=O)N[C@@H](CC(C)C)C(=O)OC)C(=O)O (stereo not given in full) | 400 nM |
| CCCCCCC(N[C@@H](CCc1ccccc1)C(=O)N[C@@H](CCCN=C(N)N)C(=O)N[C@@H](CCc1ccccc1)C(=O)OC)C(=O)O (stereo not given in full) | 800 nM |

Other lines, results leading:

| IC50 | Compound |
| --- | --- |
| 900 nM | CCCCCCC(N[C@@H](CCc1ccccc1)C(=O)N[C@@H](CCCN=C(N)N)C(=O)N[C@@H](CCCC)C(=O)OC)C(=O)O (stereo not given in full) |
| 900 nM | CCCCCCC(N[C@@H](CCc1ccccc1)C(=O)N[C@@H](CCCN=C(N)N)C(=O)N[C@@H](CCC(N)=O)C(=O)OC)C(=O)O (stereo not given in full) |

From ChEMBL document CHEMBL1130578, “Solid-phase synthesis of a N-carboxyalkyl tripeptide combinatorial library” (Bioorg Med Chem Lett, 1997)
